Reference: patent publication US7642245B2, “Antibacterial compounds having a (pyrrole carboxamide)-(benzamide)-(imidazole carboxamide) motif” (Oscient Pharmaceuticals Corporation, priority 2002, dated 2010)

Tests used:
S. aureus ATCC 27660 = assay: MIC, NCCLS broth microdilution; type: cell-based, Staphylococcus aureus; conditions: B = S. aureus ATCC 27660 (MRSA)
Excerpt: (§1) In vitro biological activity data were collected for a variety of microorganisms, including Staphylococcus aureus (ATCC 27660, a methicillin resistant strain (MRSA); ATCC 13709, a methicillin sensitive strain (MSSA)), Enterococcus faecalis (ATCC 29212), Bacillus cereus (ATCC 11778), Streptococcus pneumoniae (ATCC 49619), Candida albicans (ATCC 38247), Escherichia coli (ATCC 25922), and Moraxella (now Branhamella) catarrhalis (ATCC 25238).
(§2) The minimal inhibition concentration (MIC) of these compounds was determined using the National Committee for Clinical Laboratory Standards (NCCLS) broth microdilution assay in microtiter plates, as set forth in: (1) the guidelines of the National Committee for Clinical Laboratory Standards (NCCLS) Document M7-A4 (NCCLS, 1997); (2) the guidelines of the National Committee for Clinical Laboratory Standards (NCCLS) Document M11-A4 (NCCLS, 1997); and (3) the guidelines and reference method of the National Committee for Clinical Laboratory Standards (NCCLS) Document M27-T (NCCLS, 1995). For antifungal assays, the method recommended in Murray, P R., 1995 Manual of Clinical Microbiology (ASM Press, Washington, DC.), was employed.

S. aureus ATCC 13709 = assay: MIC, NCCLS broth microdilution; type: cell-based, Staphylococcus aureus; conditions: A = S. aureus ATCC 13709 (MSSA)
Excerpt: as §1, §2

S. pneumoniae ATCC 49619 = assay: MIC, NCCLS broth microdilution; type: cell-based, Streptococcus pneumoniae; conditions: E = S. pneumoniae ATCC 49619
Excerpt: as §1, §2

E. coli ATCC 25922 = assay: MIC, NCCLS broth microdilution; type: cell-based, Escherichia coli; conditions: G = E. coli ATCC 25922
Excerpt: as §1, §2

[1] = test system: M. catarrhalis (ATCC 25238); assay: MIC, NCCLS broth microdilution; type: cell-based, Moraxella (now Branhamella) catarrhalis; conditions: H = M. catarrhalis (ATCC 25238)
Excerpt: as §1, §2

B. cereus ATCC 11778 = assay: MIC, NCCLS broth microdilution; type: cell-based, Bacillus cereus; conditions: D = B. cereus ATCC 11778
Excerpt: as §1, §2

E. faecalis ATCC 29212 = assay: MIC, NCCLS broth microdilution; type: cell-based, Enterococcus faecalis; conditions: C = E. faecalis ATCC 29212
Excerpt: as §1, §2

C. albicans ATCC 38247 = assay: MIC, antifungal assay; type: cell-based, Candida albicans; conditions: F = C. albicans ATCC 38247
Excerpt: as §1, §2

Compound | Minimum Inhibitory Concentration (MIC) (S. aureus ATCC 27660) | Minimum Inhibitory Concentration (MIC) (S. aureus ATCC 13709) | Minimum Inhibitory Concentration (MIC) (S. pneumoniae ATCC 49619) | Minimum Inhibitory Concentration (MIC) (E. coli ATCC 25922) | Minimum Inhibitory Concentration (MIC) [1] | Minimum Inhibitory Concentration (MIC) (B. cereus ATCC 11778) | Minimum Inhibitory Concentration (MIC) (E. faecalis ATCC 29212) | Minimum Inhibitory Concentration (MIC) (C. albicans ATCC 38247)
CCOC(=O)C1CCN(CCNC(=O)c2nc(NC(=O)c3ccc(NC(=O)c4cc(NC(=O)c5cc6ccccc6cn5)cn4C)cc3)cn2C)CC1 [Compound A-48] | +++ (MIC ≦ 4 μg/mL) | +++ (MIC ≦ 4 μg/mL) | +++ (MIC ≦ 4 μg/mL) | >32 µg/mL | +++ (MIC ≦ 4 μg/mL) | +++ (MIC ≦ 4 μg/mL) | +++ (MIC ≦ 4 μg/mL) | >32 µg/mL
CCCNCCNC(=O)c1nc(NC(=O)c2ccc(NC(=O)c3cc(NC(=O)c4cc5ccccc5cn4)cn3C)cc2)cn1C [Compound A-37] | +++ (MIC ≦ 4 μg/mL) | +++ (MIC ≦ 4 μg/mL) | +++ (MIC ≦ 4 μg/mL) | +++ (MIC ≦ 4 μg/mL) | +++ (MIC ≦ 4 μg/mL) | +++ (MIC ≦ 4 μg/mL) | +++ (MIC ≦ 4 μg/mL) | >32 µg/mL
Cn1cc(NC(=O)c2cc3ccccc3cn2)cc1C(=O)Nc1ccc(C(=O)Nc2cn(C)c(C(=O)NCCN3CCCC3)n2)cc1 [Compound A-16] | +++ (MIC ≦ 4 μg/mL) | +++ (MIC ≦ 4 μg/mL) | +++ (MIC ≦ 4 μg/mL) | +++ (MIC ≦ 4 μg/mL) | +++ (MIC ≦ 4 μg/mL) | +++ (MIC ≦ 4 μg/mL) | +++ (MIC ≦ 4 μg/mL) | >32 µg/mL
Cn1cc(NC(=O)c2cc3ccccc3cn2)cc1C(=O)Nc1ccc(C(=O)Nc2cn(C)c(C(=O)NCCN3CCOCC3)n2)cc1 [Compound A-10] | +++ (MIC ≦ 4 μg/mL) | +++ (MIC ≦ 4 μg/mL) | +++ (MIC ≦ 4 μg/mL) | >32 µg/mL | +++ (MIC ≦ 4 μg/mL) | +++ (MIC ≦ 4 μg/mL) | +++ (MIC ≦ 4 μg/mL) | >32 µg/mL
Cn1cc(NC(=O)c2cc3ccccc3cn2)cc1C(=O)Nc1ccc(C(=O)Nc2cn(C)c(C(=O)NCCNCCN3CCOCC3)n2)cc1 [Compound A-26] | +++ (MIC ≦ 4 μg/mL) | +++ (MIC ≦ 4 μg/mL) | +++ (MIC ≦ 4 μg/mL) | >32 µg/mL | >32 µg/mL | +++ (MIC ≦ 4 μg/mL) | +++ (MIC ≦ 4 μg/mL) | >32 µg/mL
CC(C)N1CCN(CCNC(=O)c2nc(NC(=O)c3ccc(NC(=O)c4cc(NC(=O)c5cc6ccccc6cn5)cn4C)cc3)cn2C)CC1 [Compound A-15] | +++ (MIC ≦ 4 μg/mL) | +++ (MIC ≦ 4 μg/mL) | +++ (MIC ≦ 4 μg/mL) | >32 µg/mL | +++ (MIC ≦ 4 μg/mL) | +++ (MIC ≦ 4 μg/mL) | +++ (MIC ≦ 4 μg/mL) | >32 µg/mL

The remaining lines, values ahead:

Minimum Inhibitory Concentration (MIC) (S. aureus ATCC 27660) | Minimum Inhibitory Concentration (MIC) (S. aureus ATCC 13709) | Minimum Inhibitory Concentration (MIC) (S. pneumoniae ATCC 49619) | Minimum Inhibitory Concentration (MIC) (E. coli ATCC 25922) | Minimum Inhibitory Concentration (MIC) [1] | Minimum Inhibitory Concentration (MIC) (B. cereus ATCC 11778) | Minimum Inhibitory Concentration (MIC) (E. faecalis ATCC 29212) | Minimum Inhibitory Concentration (MIC) (C. albicans ATCC 38247) | Compound
+++ (MIC ≦ 4 μg/mL) | +++ (MIC ≦ 4 μg/mL) | +++ (MIC ≦ 4 μg/mL) | >32 µg/mL | +++ (MIC ≦ 4 μg/mL) | +++ (MIC ≦ 4 μg/mL) | +++ (MIC ≦ 4 μg/mL) | >32 µg/mL | Cn1cc(NC(=O)c2cc3ccccc3cn2)cc1C(=O)Nc1ccc(C(=O)Nc2cn(C)c(C(=O)NCCN3CCN(CC#N)CC3)n2)cc1 [Compound A-58]
+++ (MIC ≦ 4 μg/mL) | +++ (MIC ≦ 4 μg/mL) | +++ (MIC ≦ 4 μg/mL) | >32 µg/mL | >32 µg/mL | + (12 ≦ MIC ≦ 32 μg/mL) | ++ (4 < MIC < 12 μg/mL) | >32 µg/mL | Cn1cc(NC(=O)c2cc3ccccc3cn2)cc1C(=O)Nc1ccc(C(=O)Nc2cn(C)c(C(=O)NCCNC(CO)CO)n2)cc1 [Compound A-50]
+++ (MIC ≦ 4 μg/mL) | +++ (MIC ≦ 4 μg/mL) | +++ (MIC ≦ 4 μg/mL) | >32 µg/mL | +++ (MIC ≦ 4 μg/mL) | +++ (MIC ≦ 4 μg/mL) | +++ (MIC ≦ 4 μg/mL) | ++ (4 < MIC < 12 μg/mL) | Cn1cc(NC(=O)c2cc3ccccc3cn2)cc1C(=O)Nc1ccc(C(=O)Nc2cn(C)c(C(=O)NCCN3CCN(C(=O)CN)CC3)n2)cc1 [Compound A-65]
+++ (MIC ≦ 4 μg/mL) | +++ (MIC ≦ 4 μg/mL) | +++ (MIC ≦ 4 μg/mL) | >32 µg/mL | >32 µg/mL | +++ (MIC ≦ 4 μg/mL) | +++ (MIC ≦ 4 μg/mL) | >32 µg/mL | Cn1cc(NC(=O)c2cc3ccccc3cn2)cc1C(=O)Nc1ccc(C(=O)Nc2cn(C)c(C(=O)NCCN3CCC(OC(=O)CNC(=O)C4OC(O)C(O)C(O)C4O)CC3)n2)cc1 (stereo not shown) [Compound A-74]
+++ (MIC ≦ 4 μg/mL) | +++ (MIC ≦ 4 μg/mL) | +++ (MIC ≦ 4 μg/mL) | +++ (MIC ≦ 4 μg/mL) | +++ (MIC ≦ 4 μg/mL) | +++ (MIC ≦ 4 μg/mL) | +++ (MIC ≦ 4 μg/mL) | >32 µg/mL | Cn1cc(NC(=O)c2cc3ccccc3cn2)cc1C(=O)Nc1ccc(C(=O)Nc2cn(C)c(C(=O)NCCN3CCC(O)C3)n2)cc1 (racemic) [Compound A-71]
++ (4 < MIC < 12 μg/mL) | +++ (MIC ≦ 4 μg/mL) | +++ (MIC ≦ 4 μg/mL) | >32 µg/mL | + (12 ≦ MIC ≦ 32 μg/mL) | +++ (MIC ≦ 4 μg/mL) | +++ (MIC ≦ 4 μg/mL) | >32 µg/mL | CC(S)CN1CCN(CCNC(=O)c2nc(NC(=O)c3ccc(NC(=O)c4cc(NC(=O)c5cc6ccccc6cn5)cn4C)cc3)cn2C)CC1 (stereo not shown) [Compound A-77]
+++ (MIC ≦ 4 μg/mL) | +++ (MIC ≦ 4 μg/mL) | +++ (MIC ≦ 4 μg/mL) | +++ (MIC ≦ 4 μg/mL) | +++ (MIC ≦ 4 μg/mL) | +++ (MIC ≦ 4 μg/mL) | +++ (MIC ≦ 4 μg/mL) | >32 µg/mL | CC(O)CN1CCN(CCNC(=O)c2nc(NC(=O)c3ccc(NC(=O)c4cc(NC(=O)c5cc6ccccc6cn5)cn4C)cc3)cn2C)CC1 (stereo not shown) [Compound A-63]
+++ (MIC ≦ 4 μg/mL) | +++ (MIC ≦ 4 μg/mL) | +++ (MIC ≦ 4 μg/mL) | >32 µg/mL | +++ (MIC ≦ 4 μg/mL) | +++ (MIC ≦ 4 μg/mL) | +++ (MIC ≦ 4 μg/mL) | >32 µg/mL | Cn1cc(NC(=O)c2cc3ccccc3cn2)cc1C(=O)Nc1ccc(C(=O)Nc2cn(C)c(C(=O)NCCN3CCCC(O)C3)n2)cc1 (racemic) [Compound A-69]
